Experimental data from article PMC8956739, “A synthetic lipopeptide targeting top-priority multidrug-resistant Gram-negative pathogens” (Nature Communications, 2022).
In brackets after ≈: the same amount, converted by molar mass. Several values for one entry are separate records, joined by “and”; a condition that tells them apart may be missing. Identical values can stand only once. Residues, ends and D or L forms follow the SMILES beside them.

Tests used:
P. aeruginosa ATCC 27853 [1] = assay: Neutropenic mouse bloodstream infection model; assay type: in vivo; conditions: single IV dose 4 mg/kg; for Log10 CFU/mL blood at 4 h, Mean / Δlog10 CFU/mL blood (mean) / Log10 CFU/mL blood at 4 h, single mouse: 4 h; for Δlog10 CFU/mL blood (mean): treated minus control, mean of replicates; for Δlog10 CFU/mL blood (mean) / Log10 CFU/mL blood at 4 h, single mouse / Delta Log10 CFU/mL blood at 4 h, single mouse: 4 mg/kg; for Delta Log10 CFU/mL blood at 4 h, single mouse: treated mouse minus mean of vehicle mice
Procedure, shortened: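 Female Swiss mice made neutropenic with cyclophosphamide (150 mg/kg day −4, 100 mg/kg day −1), infected IV with 50 µL of 4 × 10^8 CFU/mL. Lipopeptide 4 mg/kg (free base) IV at 2 h post-inoculation, n = 3. Efficacy = Δlog10 CFU/mL blood versus saline at 4 h post-dose.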

Swiss mice, kidney = assay: Nephrotoxicity in mice (kidney histopathology); assay type: in vivo, mouse; conditions: for Kidney histopathology (SQS Score): 72 mg/kg/d subcutaneously in six divided doses every 2 h, n = 3; for Kidney histopathology, mice with the SQS score: mouse, in vivo
Procedure, shortened: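 Female Swiss mice (7-week-old, 22–28 g) received lipopeptides in saline either s.c. at 12 mg/kg ×6 every 2 h (total 72 mg/kg, n = 3) or i.p. at 20 or 25 mg/kg ×6 every 2 h (total 120 mg/kg, n = 6; 150 mg/kg, n = 3). Right kidney collected 20 h after last dose, fixed in 10% buffered formalin (pH 7.4), histology scored blinded.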

A. baumannii ATCC 19606 = assay type: cell-based, Acinetobacter baumannii; conditions: ATCC 19606
Procedure, shortened: (§1)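 Read-out is the minimum inhibitory concentration, obtained by serially diluting compound in cation-adjusted Mueller–Hinton medium and exposing each isolate in microdilution format.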

A. baumannii FADDI-AB030 = assay type: cell-based, Acinetobacter baumannii; conditions: FADDI-AB030
Procedure, shortened: (§2)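 Compounds were serially diluted in CaMHB, bacteria were added, and the lowest inhibitory concentration was recorded after broth microdilution testing.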

A. baumannii FADDI-AB034 = assay type: cell-based, Acinetobacter baumannii; conditions: FADDI-AB034
Procedure, shortened: as §2

P. aeruginosa ATCC 27853 [2] = assay type: cell-based, Pseudomonas aeruginosa; conditions: ATCC 27853
Procedure, shortened: as §1

[3] = tested on: P. aeruginosa FADDI-PA025; assay type: cell-based, Pseudomonas aeruginosa; conditions: FADDI-PA025
Procedure, shortened: as §2

[4] = tested on: P. aeruginosa FADDI-PA038; assay type: cell-based, Pseudomonas aeruginosa; conditions: FADDI-PA038
Procedure, shortened: as §2

[5] = tested on: K. pneumoniae FADDI-KP032; assay type: cell-based, Klebsiella pneumoniae; conditions: FADDI-KP032
Procedure, shortened: as §2

[6] = tested on: K. pneumoniae FADDI-KP065; assay type: cell-based, Klebsiella pneumoniae; conditions: FADDI-KP065
Procedure, shortened: as §2

Structure (SMILES) | Log10 CFU/mL blood at 4 h, Mean (P. aeruginosa ATCC 27853 [1]) | Δlog10 CFU/mL blood (mean) (P. aeruginosa ATCC 27853 [1]) | Log10 CFU/mL blood at 4 h, single mouse (P. aeruginosa ATCC 27853 [1]) | Delta Log10 CFU/mL blood at 4 h, single mouse (P. aeruginosa ATCC 27853 [1]) | Kidney histopathology (SQS Score) (Swiss mice, kidney) | Kidney histopathology, mice with the SQS score (Swiss mice, kidney) | MIC A. baumannii ATCC 19606 (A. baumannii ATCC 19606) | MIC A. baumannii FADDI-AB030 (A. baumannii FADDI-AB030) | MIC A. baumannii FADDI-AB034 (A. baumannii FADDI-AB034) | MIC P. aeruginosa ATCC 27853 (P. aeruginosa ATCC 27853 [2]) | MIC P. aeruginosa FADDI-PA025 [3] | MIC P. aeruginosa FADDI-PA038 [4] | MIC K. pneumoniae FADDI-KP032 [5] | MIC K. pneumoniae FADDI-KP065 [6]
CC[C@@H]1NC(=O)[C@@H](CC(C)C)NC(=O)[C@H](CCN)NC(=O)[C@@H](NC(=O)[C@H](CN)NC(=O)[C@@H](NC(=O)[C@H](CCN)NC(=O)c2c(Cl)cccc2Cl)[C@@H](C)O)CCNC(=O)[C@H]([C@@H](C)O)NC(=O)[C@H](CCN)NC(=O)[C@H](CCN)NC1=O [Lipopeptide F360] (HELM PEPTIDE1{[O=C(c1c(Cl)cccc1Cl)[*:2]].[Dab].T.[NC[C@H](N[*:1])C(=O)[*:2]].[Dab].[Dab].[dL].[Abu].[Dab].[Dab].T}$PEPTIDE1,PEPTIDE1,5:R3-11:R2$$$V2.0) | 7.04 Log10 CFU/mL blood | −0.07 log10 CFU/mL blood | 7.26 Log10 CFU/mL blood and 6.45 Log10 CFU/mL blood and 7.41 Log10 CFU/mL blood | 0.15 Log10 CFU/mL blood and -0.66 Log10 CFU/mL blood and 0.30 Log10 CFU/mL blood | 0 (SQS 0 = no significant change (overall score, <1)) | 3/3 | 16 µg/mL (≈ 13.8 µM) | 4 µg/mL (≈ 3.45 µM) | 8 µg/mL (≈ 6.9 µM) | 0.5 µg/mL (≈ 0.431 µM) | 4 µg/mL (≈ 3.45 µM) | 4 µg/mL (≈ 3.45 µM) | 1 µg/mL (≈ 0.862 µM) | 0.5 µg/mL (≈ 0.431 µM)
CCCCCCCC(=O)N[C@@H](CCN)C(=O)N[C@H](C(=O)N[C@@H](CCN)C(=O)N[C@H]1CCNC(=O)[C@H]([C@@H](C)O)NC(=O)[C@H](CCN)NC(=O)[C@H](CCN)NC(=O)[C@H](C)NC(=O)[C@@H](CC(C)C)NC(=O)[C@H](CCN)NC1=O)[C@@H](C)O [Lipopeptide F124] (HELM PEPTIDE1{[CCCCCCCC(=O)[*:2]].[Dab].T.[Dab].[Dab].[Dab].[dL].A.[Dab].[Dab].T}$PEPTIDE1,PEPTIDE1,5:R3-11:R2$$$V2.0) | 4.53 Log10 CFU/mL blood | −2.92 log10 CFU/mL blood | 4.71 Log10 CFU/mL blood and 4.61 Log10 CFU/mL blood and 4.26 Log10 CFU/mL blood | -2.74 Log10 CFU/mL blood and -2.83 Log10 CFU/mL blood and -3.19 Log10 CFU/mL blood | 0 (SQS 0 = no significant change (overall score, <1)) | 3/3 | 1 µg/mL (≈ 0.898 µM) | 1 µg/mL (≈ 0.898 µM) | 0.5 µg/mL (≈ 0.449 µM) | 0.5 µg/mL (≈ 0.449 µM) | >32 µg/mL | 0.5 µg/mL (≈ 0.449 µM) | 0.25 µg/mL (≈ 0.225 µM) | <0.125 µg/mL
CCCCCCCC(=O)N[C@@H](CCN)C(=O)N[C@H](C(=O)N[C@@H](CCN)C(=O)N[C@H]1CCNC(=O)[C@H]([C@@H](C)O)NC(=O)[C@H](CCN)NC(=O)[C@H](CCN)NC(=O)[C@H]([C@@H](C)O)NC(=O)[C@@H](Cc2ccccc2)NC(=O)[C@H](CCN)NC1=O)[C@@H](C)O [Lipopeptide F224] (HELM PEPTIDE1{[CCCCCCCC(=O)[*:2]].[Dab].T.[Dab].[Dab].[Dab].[dF].T.[Dab].[Dab].T}$PEPTIDE1,PEPTIDE1,5:R3-11:R2$$$V2.0) | 4.07 Log10 CFU/mL blood | −3.38 log10 CFU/mL blood | 4.08 Log10 CFU/mL blood and 4.03 Log10 CFU/mL blood and 4.10 Log10 CFU/mL blood | -3.37 Log10 CFU/mL blood and -3.42 Log10 CFU/mL blood and -3.35 Log10 CFU/mL blood | 0 (SQS 0 = no significant change (overall score, <1)) | 3/3 | 1 µg/mL (≈ 0.849 µM) | 0.25 µg/mL (≈ 0.212 µM) | 0.5 µg/mL (≈ 0.425 µM) | 1 µg/mL (≈ 0.849 µM) | 16 µg/mL (≈ 13.6 µM) | 0.5 µg/mL (≈ 0.425 µM) | 0.5 µg/mL (≈ 0.425 µM) | <0.125 µg/mL
